Laboratory results taken from patent publication US9724351B2, “Compounds for the treatment of paramoxyvirus viral infections” (priority 2012, dated 2017).

Legend:
[1] = Cytotoxicity Determination; type: cell-based; conditions: human, HEp-2 cells, without addition of virus, CCK-8 readout, bins (Table 4: greater than 100 μM; Table 5: equal to or less than 100 μM and greater than 10 μM), read-out: 50% cytotoxicity concentration (CC50)
Method in brief: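 CC50 was derived from CCK-8 optical density after a 3-4 h reagent incubation. Before that, cells without virus had been treated for 5 days at 37 °C, 5% CO2 with compound at seven ½-step final concentrations from 100 μM, in duplicate wells.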

[2] = tested on: Respiratory Syncytial Virus (RSV) long strain (ATCC#VR-26); assay: RSV Antiviral Assay (CPE reduction assay); type: cell-based; conditions: human respiratory syncytial virus, 120 h; HEp-2 cells infected with RSV long strain, 5 days, CCK-8 readout; bins (Table 2: less than 1 μM; Table 3: equal to or higher than 1 μM and less than 50 μM); read-out: 50% effective concentration (EC50)
Method in brief: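 Cytopathic-effect protection measured after 5 days at 37 °C, 5% CO2 via CCK-8 dehydrogenase readout at 450 nm (630 nm reference), EC50 regressed from mean O.D. Host HEp-2 cells received RSV long strain at 100 TCID50/well; compound 9-point ⅓ series starting 100 μM or 1 μM, 1% DMSO, duplicate wells.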

In the case of `CCN(CC)c1cccc(C(=O)NCC(=O)N/N=C(\C)c2csc3ccccc23)c1` [Compound 503], the CC50 at 5 days [1] is reported as > 100 µM and the EC50 [2] is reported as 1 to 50 µM.

In the case of `COc1ccc(C(=O)CNC(=O)c2cc(C)on2)nc1-c1ccc(F)c(Cl)c1` [Compound 4202], the CC50 at 5 days [1] is reported as > 100 µM and the EC50 [2] is reported as 1 to 50 µM.

In the case of `COc1cc(C(=O)NCC(=O)c2ccc(OC)c(-c3ccc(F)c(Br)c3)n2)ccc1OCc1ncn[nH]1` [Compound 3903], the CC50 at 5 days [1] is reported as > 100 µM and the EC50 [2] is reported as < 1 µM.

`COc1cc(C(=O)NCC(=O)c2ccc(OC)c(-c3ccc(F)c(Cl)c3)n2)ccc1-n1cccn1` [Compound 2649] gave a CC50 at 5 days [1] of 10 to 100 µM and an EC50 [2] of 1 to 50 µM.

In the case of `COc1ccc(C(=O)NCC(=O)c2cc(C3CC3)cc(-c3csc4c(F)cccc34)n2)cc1OC` [Compound 1249], the CC50 at 5 days [1] is reported as > 100 µM and the EC50 [2] is reported as 1 to 50 µM.

For `COc1ccc(C(=O)NCC(=O)c2ccc(OC)c(-c3ccc(C)cc3)n2)cc1OC` [Compound 1530], the CC50 at 5 days [1] was > 100 µM and the EC50 [2] was 1 to 50 µM.

With `CCN(C)c1ccc(C(=O)NCC(=O)N/N=C(\C)c2csc3ccccc23)cc1OC` [Compound 512] the CC50 at 5 days [1] was 10 to 100 µM and the EC50 [2] was 1 to 50 µM.

In the case of `COc1cc(C(=O)CNC(=O)c2ccc(OC)c(OC)c2)nc(-c2ccc3[nH]nnc3c2)c1` [Compound 1403], the CC50 at 5 days [1] is reported as > 100 µM and the EC50 [2] is reported as 1 to 50 µM.

In the case of `COc1cc(NCCC(=O)N(C)/N=C/c2csc3c(F)cccc23)ccc1OCCO` [Compound 2305], the CC50 at 5 days [1] is reported as 10 to 100 µM and the EC50 [2] is reported as 1 to 50 µM.

Work on `O=C(NCC(=O)c1cccc(-c2csc3c(F)cccc23)n1)c1ccc(OCCO)c(O)c1` [Compound 1230] yielded a CC50 at 5 days [1] of 10 to 100 µM and an EC50 [2] of 1 to 50 µM.

Work on `COc1ccc(C(=O)NCC(=O)c2ccc(OC)c(-c3cccc4ccccc34)n2)cc1OC` [Compound 1513] yielded a CC50 at 5 days [1] of 10 to 100 µM and an EC50 [2] of 1 to 50 µM.

For `COc1cc(C(=O)NCC(=O)c2cc(OC)c(OC)c(-c3csc4c(F)cccc34)n2)ccc1OCCO` [Compound 2108], the CC50 at 5 days [1] was > 100 µM and the EC50 [2] was < 1 µM.

`CCCCOc1ccc(C(=O)NCC(=O)N/N=C(\C)c2csc3ccccc23)cc1OC` [Compound 483] gave a CC50 at 5 days [1] of 10 to 100 µM and an EC50 [2] of 1 to 50 µM.

For `CCOc1ccc(C(=O)NCC(=O)c2ccc(OC)c(-c3ccc(F)c(Cl)c3)n2)cc1OC` [Compound 2641], the CC50 at 5 days [1] was > 100 µM and the EC50 [2] was < 1 µM.

In the case of `COc1ccc(C(=O)NCC(=O)c2ccc(OC)c(-c3cncnc3)n2)cc1OC` [Compound 1520], the CC50 at 5 days [1] is reported as > 100 µM and the EC50 [2] is reported as 1 to 50 µM.

With `COc1cc(C(=O)N[C@H](CO)C(=O)c2ccc(OC)c(-c3ccc(F)c(Cl)c3)n2)ccc1OCCO` [Compound 1831] the CC50 at 5 days [1] was 10 to 100 µM and the EC50 [2] was < 1 µM.

For `COc1ccc(C(=O)NCC(=O)N2CCCC(c3csc4c(F)cccc34)=N2)cc1OC` [Compound 3501], the CC50 at 5 days [1] was 10 to 100 µM and the EC50 [2] was < 1 µM.

Compound `COc1ccc(C(=O)NCC(=O)c2ccnc(-c3csc4c(F)cccc34)c2O)cc1OC` [Compound 2102] has a CC50 at 5 days [1] of 10 to 100 µM and an EC50 [2] of 1 to 50 µM.

In the case of `COc1cc(C(=O)CNC(=O)c2ccc(OCCCO)c(OC)c2)nc(-c2csc3c(F)cccc23)c1` [Compound 1216], the CC50 at 5 days [1] is reported as 10 to 100 µM and the EC50 [2] is reported as < 1 µM.

In the case of `COc1ccc(C(=O)NCC(=O)N/N=C/c2c(C)sc3ccccc23)cc1OC` [Compound 400], the CC50 at 5 days [1] is reported as 10 to 100 µM and the EC50 [2] is reported as 1 to 50 µM.

For `C/C(=N\NC(=O)CNC(=O)c1ccc2c(c1)OCCN2C)c1csc2ccccc12` [Compound 470], the CC50 at 5 days [1] was > 100 µM and the EC50 [2] was 1 to 50 µM.

Work on `COc1ccc(C(=O)NCC(=O)N/N=C/c2cc3ccccc3o2)cc1OC` [Compound 409] yielded a CC50 at 5 days [1] of 10 to 100 µM and an EC50 [2] of 1 to 50 µM.

`CCCCC/C(=N\NC(=O)CNC(=O)c1ccc(OC)c(OC)c1)c1csc2ccccc12` [Compound 448A] showed a CC50 at 5 days [1] of 10 to 100 µM and an EC50 [2] of 1 to 50 µM.

In the case of `CCSc1ccc(C(=O)NCC(=O)N/N=C/c2csc3ccccc23)cc1` [Compound 238], the CC50 at 5 days [1] is reported as 10 to 100 µM and the EC50 [2] is reported as < 1 µM.

In the case of `COc1cc(C(=O)CNC(=O)c2ccc(OC)c(OC)c2)nc(-c2ccc3c(c2)OCCO3)c1` [Compound 1402], the CC50 at 5 days [1] is reported as > 100 µM and the EC50 [2] is reported as 1 to 50 µM.
